Measurements taken from patent US8563565B2, “Pyrazoloquinoline derivatives” (Eisai R&D Management Co., Ltd., priority 2011, dated 2013).
Read-outs that look alike come from different tables or passages of the source.

Experiments:
[1] = target: T1, human recombinant PDE9 protein (Homo sapiens, UniProt O76083); assay: PDE9 inhibitory activity test (measurement of PDE9 inhibitory action, [3H]-cGMP); format: biochemical; settings: PDE9 IC50, human recombinant PDE9, 30° C., 10 min
T1 construct: His-tag (inferred from the Ni column purification; a myc His-tag vector is named only for the HEK293 expression check); made in house; host or cells: silkworm (pYNG vector, Katakura Industries)
T1 sequence (O76083 whole entry): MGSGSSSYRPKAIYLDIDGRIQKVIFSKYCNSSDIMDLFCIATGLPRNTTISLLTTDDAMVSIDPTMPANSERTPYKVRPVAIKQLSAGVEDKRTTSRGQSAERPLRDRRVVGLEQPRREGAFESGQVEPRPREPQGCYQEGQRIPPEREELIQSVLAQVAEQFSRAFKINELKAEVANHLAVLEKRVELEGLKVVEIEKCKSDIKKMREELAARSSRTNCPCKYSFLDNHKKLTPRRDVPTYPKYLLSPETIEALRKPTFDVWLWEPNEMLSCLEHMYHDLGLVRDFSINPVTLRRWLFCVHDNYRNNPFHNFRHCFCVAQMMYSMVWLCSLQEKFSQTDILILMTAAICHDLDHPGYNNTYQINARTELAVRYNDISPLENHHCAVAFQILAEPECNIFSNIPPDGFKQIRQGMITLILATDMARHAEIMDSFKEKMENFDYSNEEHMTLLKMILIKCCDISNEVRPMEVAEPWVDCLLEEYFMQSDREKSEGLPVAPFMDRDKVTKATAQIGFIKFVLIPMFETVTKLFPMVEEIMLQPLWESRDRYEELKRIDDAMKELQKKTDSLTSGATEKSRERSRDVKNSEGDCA
Excerpt: 1) Preparation of a Human Recombinant PDE9 Protein
An hsPDE9A 1cDNA fragment was amplified by being based on a base sequence (Accession No.: AF048837) of the hsPDE9A1 registered on GenBank data base, and by using the following sequences (Hokkaido System Science Co., Ltd.) as a primer and Human hippocampus cDNA library (Clontech Laboratories, Inc.) as a template DNA, and using Pfu50 DNA polymerase (Invitrogen Corp.), and by a polymerase chain reaction (PCR) of the following condition.
The condition of PCR: [96° C., 5 min]×1 cycle, [(96° C., 10 sec), (57° C., 5 sec), (72° C., 2 min)]×30 cycles
The obtained hsPDE9A 1 cDNA fragment was incorporated in a TOPO-TA cloning vector (Invitrogen Corp.), and the base sequence was checked; and thereafter, the resultant was transfected in a pcDNA 3.1/myc His-tag vector (Invitrogen Corp.) to thereby make a human PDE9 expression vector for mammal cells. The human PDE9 expression vector for mammal cells was transfected with transient expression to an HEK293 cell by using a LIPOFETAMINE 2000 Reagent (Gibco). It was confirmed by Western blot method that the PDE9A expressed in the HEK293 cell, and then, the human PDE9A 1cDNA fragment was transfected in a pYNG vector (Katakura Industries Co., Ltd.) to thereby make an expression vector for insect cells. A supernatant of homogenized silk worm in which a large amount of PDE9 was expressed was purified by an equilibrated Ni column using a buffer A (20 mmol/L Tris-HCl, pH: 8.0, 1 mmol/L DTT, 10 mmol/L imidazole). After 1 hour of mixing of the supernatant and the Ni column, cleaning was carried out using a buffer B (20 mmol/L Tris-HCl, pH: 8.0, 1 mmol/L […]), and elution was carried out using a buffer C (20 mmol/L Tris-HCl, pH: 8.0, 1 mmol/L DTT, 100 mmol/L imidazole). An elution fraction was preparatively collected to thereby obtain a PDE9 enzyme solution.
2) Measurement of PDE9 Inhibitory Action
To 100 μL of a buffer D (40 mmol/L Tris-HCl, pH: 7.4, 10 mmol/L MgCl2, 1 mM DTT, 2 μM cGMP) solution containing [^3H]-cGMP ([…]/mL), 10 μL of a compound solution for evaluation (a solution in which a compound was dissolved in DMSO and diluted so that the DMSO concentration became 5%) and 90 μL of a solution prepared by diluting the PDE9 enzyme solution prepared in the above with a buffer E (40 mmol/L Tris-HCl, pH: 7.4, 10 mmol/L MgCl2, 1 mM DTT, 1 mmol/L EGTA) were added under ice cooling. The resultant mixed solution was incubated at 30° C. for 10 min, and thereafter heated for 2 min in boiled water to stop the enzyme reaction of the PDE9. Then, the resultant was returned to room temperature; 50 μL of 5′-Nucleotidase (Biomol GmbH, 10 units/mL) was added thereto; and the resultant was incubated at 30° C. for 10 min to thereby convert [^3H]-5′-GMP formed in the previous reaction to [^3H]-guanosine. 500 μL of an anion exchange resin (Bio-Rad AG1-X2 resin, mesh size: 200-400, H2O:resin=2:1) was added to the resultant reaction liquid, and allowed to stand for 10 min, and thereafter centrifuged (2,000 rpm, 10 min); and a supernatant in which the [^3H]-guanosine was present was transferred to a LumaPlate (PerkinElmer, Inc.), and the radioactivity was measured by a TopCount NXT microplate scintillation and luminescence counter (PerkinElmer, Inc.).
The inhibition percentage of the evaluation compound was calculated using the following expression, taking the radioactivity of a control containing no evaluation compound to be (A), the radioactivity of a blank containing no enzyme to be (B), and the radioactivity of the evaluation compound to be (C). Inhibition percentage=100−{[(C)−(B)]/[(A)−(B)]}×100(%)
The IC50 value for PDE9 of the evaluation compound was determined from inhibition percentage for various concentrations.

[2] = system: cGMP in the cerebrospinal fluid; assay: Effect on rodent cerebrospinal fluid cGMP (mouse); format: in vivo, ICR male mice; settings: 10 mg/kg p.o., sampling time 0.5 hr
Experimental: (§1) 3) Effect on Rodent Cerebrospinal Fluid cGMP
(§2) The test compound was administered to ICR male mice (Charles River Laboratories Japan, Inc.), Sprague-Dawley male rats (SD) (Charles River Laboratories Japan, Inc.) or Long-Evans male rats (LE) (Institute for Animal Reproduction), and the cerebrospinal fluid was then collected under pentobarbital anesthesia and stored at −20° C. cGMP in the cerebrospinal fluid was measured in accordance with the acetylation EIA procedure of cGMP EIA kit (GE Healthcare) or the non-acetylation procedure of cGMP EIA kit (Cayman) The result was an increase (C) in the amount of cGMP of the test compound-administered group (B) relative to the amount of cGMP of the vehicle-administered group (A), and was calculated using the following formula cGMP increase(C)=[(B)−(A)]/(A)×100(%)

[3] = system: cGMP in the cerebrospinal fluid; assay: Effect on rodent cerebrospinal fluid cGMP (rat); format: in vivo; settings: po, read-out: % CSF cGMP increase from vehicle control
Experimental: as §1, §2

[4] = system: cGMP in the hippocampus; assay: Effect on rodent hippocampal cGMP; format: in vivo, rat; settings: po, read-out: % hippocampal cGMP increase from vehicle control
Experimental: 4) Effect on Rodent Hippocampal cGMP
The test compound was administered to Sprague-Dawley male rats (Charles River Laboratories Japan, Inc.) or Long-Evans male rats (Institute for Animal Reproduction) and then the animals were sacrificed with microwave under pentobarbital anesthesia, and the hippocampus was extracted. After measuring the wet weight, the hippocampus was frozen with liquid nitrogen and stored at −80° C. In the measurement of cGMP in the hippocampus, a 0.5 M perchloric acid/1 mM EDTA solution was added at 5% (w/v) based on the wet weight, and the mixture was homogenized. After the homogenization, the homogenate was centrifuged (10000 rpm, 15 min), and the supernatant was collected. The collected supernatant was neutralized with a 2 M potassium bicarbonate solution and centrifuged (13000 rpm, 10 min). The cGMP concentration in the supernatant was measured in accordance with the non-acetylation EIA procedure of cGMP EIA kit (GE Healthcare). The result was an increase (C) in the amount of cGMP of the test compound-administered group (B) relative to the amount of cGMP of the vehicle-administered group (A), and was calculated using the following formula. cGMP increase(C)=[(B)−(A)]/(A)×100(%)

[5] = rat(LE), 30 mg/kg p.o., sampling time 1 hr

Row | SMILES | IC50 [1] [nM] | % CSF cGMP increase from vehicle control [2] [%] | change in vivo at 30 mg/kg ([3]; Rattus norvegicus, 1 h) [%] | change in vivo at 30 mg/kg ([4]; Rattus norvegicus, 1 h) [%] | change in vivo at 30 mg/kg [3, 5] [%] | change in vivo at 30 mg/kg [4, 5] [%] | change in vivo at 10 mg/kg ([3]; Rattus norvegicus, 1 h) [%] | change in vivo at 10 mg/kg ([4]; Rattus norvegicus, 1 h) [%]
1 | Cc1cc(C)c(-c2ccc3c(c2)[nH]c(=O)c2cnn(C4CCOCC4)c23)c(C)n1 [Example 2, 7-(2,4,6-trimethylpyridin-3-yl)-1-(tetrahydro-2H-pyran-4-yl)-1H-pyrazolo[4,3-c]quinolin-4(5H)-one] | 25 | 110 |  |  |  |  |  | 
2 | COc1nc(C)cc(C)c1-c1ccc2c(c1)[nH]c(=O)c1cnn(C3CCOCC3)c12 [Example 4, 7-(2-methoxy-4,6-dimethylpyridin-3-yl)-1-(tetrahydro-2H-pyran-4-yl)-1H-pyrazolo[4,3-c]quinolin-4(5H)-one] | 4.37 |  | 246 | 25 |  |  |  | 
3 | COc1ncc(C)c(-c2ccc3c(c2)[nH]c(=O)c2cnn(C4CCOCC4)c23)c1C [Example 15, 7-(2-methoxy-3,5-dimethylpyridin-4-yl)-1-(tetrahydro-2H-pyran-4-yl)-1H-pyrazolo[4,3-c]quinolin-4(5H)-one] | 8.87 |  |  |  | 203 | 33 |  | 
4 | COc1ncc(C)c(-c2ccc3c(c2)[nH]c(=O)c2cnn(C4COCCOC4)c23)c1C [Example 43, 1-(1,4-dioxepan-6-yl)-7-(2-methoxy-3,5-dimethylpyridin-4-yl)-1H-pyrazolo[4,3-c]quinolin-4(5H)-one] | 10.5 |  |  |  |  |  | 292 | 33
5 | Cc1cc(OC(C)C)nc(C)c1-c1ccc2c(c1)[nH]c(=O)c1cnn([C@H]3CCOC3)c12 [Example 51, (S)-7-(6-isopropyloxy-2,4-dimethylpyridin-3-yl)-1-(tetrahydrofuran-3-yl)-1H-pyrazolo[4,3-c]quinolin-4(5H)-one] | 4.87 |  |  |  |  |  | 189 | 17
6 | COc1ncc(C)c(-c2cc3[nH]c(=O)c4cnn([C@H]5CCOC5)c4c3cc2F)c1C [Example 53, (S)-8-fluoro-7-(2-methoxy-3,5-dimethylpyridin-4-yl)-1-(tetrahydrofuran-3-yl)-1H-pyrazolo[4,3-c]quinolin-4(5H)-one] | 10.1 |  |  |  |  |  | 202 | 27
7 | COc1nc(C)cc(C)c1-c1cc2[nH]c(=O)c3cnn([C@H]4CCOC4)c3c2cc1F [Example 54, (S)-8-fluoro-7-(2-methoxy-4,6-dimethylpyridin-3-yl)-1-(tetrahydrofuran-3-yl)-1H-pyrazolo[4,3-c]quinolin-4(5H)-one] | 8.71 |  |  |  |  |  | 282 | 23
8 | COc1cc(C)c(-c2cc3[nH]c(=O)c4cnn([C@H]5CCOC5)c4c3cc2F)c(C)n1 [Example 55, (S)-8-fluoro-7-(6-methoxy-2,4-dimethylpyridin-3-yl)-1-(tetrahydrofuran-3-yl)-1H-pyrazolo[4,3-c]quinolin-4(5H)-one] | 17.5 |  |  |  |  |  | 323 | 17
